US20230136301A1, “Corticosteriod Reduction in Treatment with Anti-CD38 Antibody” (Janssen Biotech, Inc., priority 2021, published 2023)

System: patients with RRMM
Test: PAVO Part 3: efficacy by IMWG response criteria
Type: in vivo, human
Procedure: The primary endpoint was safety of pre- and post-dose steroid tapering. Key secondary endpoints included the overall response rate (ORR) and the rate of complete response (CR).
For the evaluation of efficacy, responses were assessed according to International Myeloma Working Group (IMWG) consensus recommendations (Durie et al., Leukemia 20(9):1467-73 (2006); Rajkumar et al., Blood 117(18):4691-95 (2011)). Disease evaluations were performed by a central laboratory.
In PAVO Part 3, no formal statistical hypothesis testing was performed. Data were summarized descriptively. Continuous variables were summarized using the number of observations, mean and standard deviation (SD), coefficient of variation, median and range as appropriate. Categorical variables were summarized using the number of observations and percentages as appropriate. Duration of response and PFS were estimated using Kaplan-Meier methods.

DARA SC: 1,800 mg daratumumab co-formulated with 30,000 U rHuPH20 (2,000 U/mL, 15 mL), manual subcutaneous injection
9-month duration of response rate (1-week taper): 100% | Estimated 9-month PFS rate (1-week taper): 46.7% | Median PFS (1-week taper): 7.4 months | Median duration of response (1-week taper): not reached | Median time to best response (1-week taper): 1.0 months | Patients achieving ≥CR (1-week taper): 1 (8.3%) n (%) | Patients achieving ≥VGPR (1-week taper): 2 (16.7%) n (%) | Rate of very good partial response or better (1-week taper): 16.7% | Overall response rate (ORR) (1-week taper, median follow-up 8.3 months): 41.7% | 9-month duration of response rate (2-week taper): 83.3% | Estimated 9-month PFS rate (2-week taper): 36.1% | Median PFS (2-week taper): 4.7 months | Median duration of response (2-week taper): 16.7 months | Median time to best response (2-week taper): 1.9 months | Patients achieving ≥CR (2-week taper): no patient | Patients achieving ≥VGPR (2-week taper): 5 (33.3%) n (%) | Rate of very good partial response or better (2-week taper): 33.3% | Overall response rate (ORR) (2-week taper, median follow-up 11.1 months): 40.0% | 9-month duration of response rate (3-week taper): 83.3% | Estimated 9-month PFS rate (3-week taper): 40.0% | Median PFS (3-week taper): 5.9 months | Median duration of response (3-week taper): not reached | Median time to best response (3-week taper): 1.5 months | Patients achieving ≥CR (3-week taper): 1 (6.7%) n (%) | Patients achieving ≥VGPR (3-week taper): 3 (20.0%) n (%) | Rate of very good partial response or better (3-week taper): 20.0% | Overall response rate (ORR) (3-week taper, median follow-up 9.2 months): 40.0% | Patients achieving ≥CR (Total n=42): 2 (4.8% (95% CI: 0.6%, 16.2%)) n (%) | Patients achieving ≥VGPR (Total n=42): 10 (23.8% (95% CI: 12.1%, 39.5%)) n (%) | Overall response rate (ORR) (Total n=42, median follow-up 8.3 months): 40.5% | Estimated 9-month PFS rate (all treated N=42): 40.7% | Median PFS (all treated N=42): 5.9 months | Median time to best response (responders n=17): 1.1 months | Median time to first response (responders n=17): 1.0 months
